The subject of the assay is T-47D. Nature of the assay: Cellular Assay T-47D. The conditions noted are these: Homo sapiens, T47D; T-47D cells. Type of assay: cell-based.

As a reminder, the EC50 is the concentration at which the effect is half-maximal. The low end stands for higher potency in that assay, the high end for lower potency in that assay. Consider `Cc1cc(C(C)Nc2ccccc2C(=O)O)c2oc(N3CCC(C)(C)CC3)c(C)c(=O)c2c1` (single isomer, unassigned) [Example 358, 2-[1-[2-(4,4-Dimethyl-1-piperidyl)-3,6-dimethyl-4-oxo-chromen-8-yl]ethylamino]benzoic acid], for which the EC50 was under 1 µM.
Under `Cc1cc(C(C)Nc2ccc(C#N)cc2C(=O)O)c2oc(N3CCC(C)(C)CC3)cc(=O)c2c1` (centres unmarked) [Example 6, 5-Cyano-2-[1-[2-(4,4-dimethyl-1-piperidyl)-6-methyl-4-oxo-chromen-8-yl]ethylamino]benzoic acid] stands 1 to 5 µM; under `Cc1cc(C(C)Nc2ccc(Br)cc2C(=O)O)c2oc(N3CCC(C)(C)CC3)cc(=O)c2c1` (centres unmarked) [Example 7, 5-Bromo-2-[1-[2-(4,4-dimethyl-1-piperidyl)-6-methyl-4-oxo-chromen-8-yl]ethylamino]benzoic acid], 5 to 15 µM; under `Cc1cc(C(C)Nc2cc(Cl)ccc2C(=O)O)c2oc(N3CCC(C)(C)CC3)cc(=O)c2c1` (centres unmarked) [Example 10, 4-Chloro-2-[1-[2-(4,4-dimethyl-1-piperidyl)-6-methyl-4-oxo-chromen-8-yl]ethylamino]benzoic acid], 15 to 24 µM.
In the case of `Cc1cc(C(C)Nc2c(Cl)cccc2C(=O)O)c2oc(N3CCC(C)(C)CC3)cc(=O)c2c1` (centres unmarked) [Example 11, 3-Chloro-2-[1-[2-(4,4-dimethyl-1-piperidyl)-6-methyl-4-oxo-chromen-8-yl]ethylamino]benzoic acid], the EC50 fell in the range of 15 to 24 µM.
As to `Cc1cc(C(C)Nc2cc(C)c(C)cc2C(=O)O)c2oc(N3CCC(C)(C)CC3)cc(=O)c2c1` (centres unmarked) [Example 12, 2-[1-[2-(4,4-Dimethyl-1-piperidyl)-6-methyl-4-oxo-chromen-8-yl]ethylamino]-4,5-dimethyl-benzoic acid], the EC50 was over 24 µM.
In turn, `Cc1cc(C(C)Nc2cc(F)c(F)cc2C(=O)O)c2oc(N3CCC(C)(C)CC3)cc(=O)c2c1` (centres unmarked) [Example 13, 2-[1-[2-(4,4-Dimethyl-1-piperidyl)-6-methyl-4-oxo-chromen-8-yl]ethylamino]-4,5-difluoro-benzoic acid] came in with an EC50 of 15 to 24 µM.
In turn, `Cc1cc(C(C)Nc2ccc(F)cc2C(=O)O)c2oc(N3CCC(C)(C)CC3)cc(=O)c2c1` (centres unmarked) [Example 14, 2-[1-[2-(4,4-Dimethyl-1-piperidyl)-6-methyl-4-oxo-chromen-8-yl]ethylamino]-5-fluoro-benzoic acid] gave an EC50 of 1 to 5 µM.
On to `COc1ccc(NC(C)c2cc(C)cc3c(=O)cc(N4CCC(C)(C)CC4)oc23)c(C(=O)O)c1` (centres unmarked) [Example 15, 2-[1-[2-(4,4-Dimethyl-1-piperidyl)-6-methyl-4-oxo-chromen-8-yl]ethylamino]-5-methoxy-benzoic acid], for which the EC50 lay within 5 to 15 µM.
The compound `COc1cc(NC(C)c2cc(C)cc3c(=O)cc(N4CCC(C)(C)CC4)oc23)c(C(=O)O)cc1OC` (centres unmarked) [Example 16, 2-[1-[2-(4,4-Dimethyl-1-piperidyl)-6-methyl-4-oxo-chromen-8-yl]ethylamino]-4,5-dimethoxy-benzoic acid] showed an EC50 of over 24 µM.
With `Cc1cc(C(C)Nc2c(C)cccc2C(=O)O)c2oc(N3CCC(C)(C)CC3)cc(=O)c2c1` (centres unmarked) [Example 17, 2-[1-[2-(4,4-Dimethyl-1-piperidyl)-6-methyl-4-oxo-chromen-8-yl]ethylamino]-3-methyl-benzoic acid] the figure was over 24 µM; with `Cc1cc(C(C)Nc2cc(F)c(C)cc2C(=O)O)c2oc(N3CCC(C)(C)CC3)cc(=O)c2c1` (centres unmarked) [Example 18, 2-[1-[2-(4,4-Dimethyl-1-piperidyl)-6-methyl-4-oxo-chromen-8-yl]ethylamino]-4-fluoro-5-methyl-benzoic acid], 15 to 24 µM; with `Cc1cc(C(C)Nc2ccccc2S(N)(=O)=O)c2oc(N3CCC(C)(C)CC3)cc(=O)c2c1` (centres unmarked) [Example 21, 2-[1-[2-(4,4-Dimethyl-1-piperidyl)-6-methyl-4-oxo-chromen-8-yl]ethylamino]benzenesulfonamide], 5 to 15 µM.
Turning to `Cc1cc(C(C)Nc2cccc(F)c2C(=O)O)c2oc(N3CCC(C)(C)CC3)cc(=O)c2c1` (centres unmarked) [Example 23, 2-[1-[2-(4,4-Dimethyl-1-piperidyl)-6-methyl-4-oxo-chromen-8-yl]ethylamino]-6-fluoro-benzoic acid], the EC50 is 5 to 15 µM.
`Cc1cc(C(C)Nc2cccc(Cl)c2C(=O)O)c2oc(N3CCC(C)(C)CC3)cc(=O)c2c1` (centres unmarked) [Example 24, 2-Chloro-6-[1-[2-(4,4-dimethyl-1-piperidyl)-6-methyl-4-oxo-chromen-8-yl]ethylamino]benzoic acid] showed an EC50 of over 24 µM.
In the case of `Cc1cc(C(C)Nc2cccc3c2C(=O)NC3=O)c2oc(N3CCC(C)(C)CC3)cc(=O)c2c1` (centres unmarked) [Example 32, 4-((1-(2-(4,4-Dimethylpiperidin-1-yl)-6-methyl-4-oxo-4H-chromen-8-yl)ethyl)amino)isoindoline-1,3-dione], the EC50 is over 24 µM.
The compound `Cc1cc(C(C)Nc2cc(F)ccc2C(=O)O)c2oc(N3CCC(C)(C)CC3)cc(=O)c2c1` (centres unmarked) [Example 36, 2-[1-[2-(4,4-Dimethyl-1-piperidyl)-6-methyl-4-oxo-chromen-8-yl]ethylamino]-4-fluoro-benzoic acid] gave an EC50 of 5 to 15 µM.
For the compound `Cc1cc(C(C)Nc2ccccc2C(=O)O)c2oc(NCC(C)C)cc(=O)c2c1` (centres unmarked) [Example 77, 2-[1-[2-(Isobutylamino)-6-methyl-4-oxo-chromen-8-yl]ethylamino]benzoic acid], the EC50 was over 24 µM.
`Cc1cc(C(C)Nc2ccccc2C(=O)O)c2oc(N(C)C)cc(=O)c2c1` (centres unmarked) [Example 78, 2-[1-[2-(Dimethylamino)-6-methyl-4-oxo-chromen-8-yl]ethylamino]benzoic acid]: the EC50 is over 24 µM.
For `Cc1cc(C(C)Nc2ccccc2C(=O)O)c2oc(N3CCCC(C)C3)cc(=O)c2c1` (centres unmarked) [Example 79, 2-[1-[6-Methyl-2-(3-methyl-1-piperidyl)-4-oxo-chromen-8-yl]ethylamino]benzoic acid], the 50% effective concentration (EC50) lay within 1 to 5 µM.
Turning to `Cc1cc(C(C)Nc2ccccc2C(=O)O)c2oc(N3CCC4(CCNCC4)CC3)cc(=O)c2c1` (centres unmarked) [Example 89, 2-[1-[2-(3,9-Diazaspiro[5.5]undecan-3-yl)-6-methyl-4-oxo-chromen-8-yl]ethylamino]benzoic acid], the EC50 was over 24 µM.
`Cc1cc(C(C)Nc2ccccc2C(=O)O)c2oc(N3CCN(C(=O)OC(C)(C)C)CC3)cc(=O)c2c1` (centres unmarked) [Example 90, 2-[1-[2-(4-tert-Butoxycarbonylpiperazin-1-yl)-6-methyl-4-oxo-chromen-8-yl]ethylamino]benzoic acid] had an EC50 of 15 to 24 µM.
Under `Cc1cc(C(C)Nc2ccccc2C(=O)O)c2oc(N3CCNCC3)cc(=O)c2c1` (centres unmarked) [Example 91, 2-[1-(6-Methyl-4-oxo-2-piperazin-1-yl-chromen-8-yl)ethylamino]benzoic acid] stands over 24 µM.
`Cc1cc(C(C)Nc2ccccc2C(=O)O)c2oc(N3CCN(C)CC3)cc(=O)c2c1` (centres unmarked) [Example 92, 2-[1-[6-Methyl-2-(4-methylpiperazin-1-yl)-4-oxo-chromen-8-yl]ethylamino]benzoic acid] gave an EC50 of over 24 µM.
`Cc1cc(C(C)Nc2ccccc2C(=O)O)c2oc(N3CCC4(CCOCC4)CC3)cc(=O)c2c1` (centres unmarked) [Example 94, 2-[1-[6-Methyl-2-(3-oxa-9-azaspiro[5.5]undecan-9-yl)-4-oxo-chromen-8-yl]ethylamino]benzoic acid] showed an EC50 of 5 to 15 µM.
In the case of `Cc1cc(C(C)Nc2ccccc2C(=O)O)c2oc(N3CCCC4(CCNC4=O)C3)cc(=O)c2c1` (centres unmarked) [Example 95, 2-[1-[6-Methyl-4-oxo-2-(1-oxo-2,9-diazaspiro[4.5]decan-9-yl)chromen-8-yl]ethylamino]benzoic acid], the EC50 was over 24 µM.
Take `Cc1cc(C(C)Nc2ccccc2C(=O)O)c2oc(N3CCC4(CC3)COC4)cc(=O)c2c1` (centres unmarked) [Example 98, 2-[1-[6-Methyl-2-(2-oxa-7-azaspiro[3.5]nonan-7-yl)-4-oxo-chromen-8-yl]ethylamino]benzoic acid]: the concentration giving a half-maximal response (EC50) is over 24 µM.
The compound `Cc1cc(C(C)Nc2ccccc2C(=O)O)c2oc(N3CCCC3)cc(=O)c2c1` (centres unmarked) [Example 368, 2-[1-(6-Methyl-4-oxo-2-pyrrolidin-1-yl-chromen-8-yl)ethylamino]benzoic acid] had an EC50 of 15 to 24 µM.
With `Cc1cc(CNc2ccccc2C(=O)O)c2oc(N3CCC(C)(C)CC3)cc(=O)c2c1` [Example 369, 2-[[2-(4,4-Dimethyl-1-piperidyl)-6-methyl-4-oxo-chromen-8-yl]methylamino]benzoic acid] the figure was over 24 µM; with `Cc1cc(C(C)Nc2ccccc2C(=O)O)c2oc(N3CCC(C)CC3)cc(=O)c2c1` (centres unmarked) [Example 370, 2-[1-[6-Methyl-2-(4-methyl-1-piperidyl)-4-oxo-chromen-8-yl]ethylamino]benzoic acid], 1 to 5 µM; with `Cc1cc(C(C)Nc2ccccc2C(=O)O)c2oc(N3CCC3)cc(=O)c2c1` (centres unmarked) [Example 375, 2-[1-[2-(Azetidin-1-yl)-6-methyl-4-oxo-chromen-8-yl]ethylamino]benzoic acid], over 24 µM.
The compound `COCCOCCOC(=O)c1ccccc1N[C@H](C)c1cc(C)cc2c(=O)cc(N3CCCCC3)oc12` [Example 377, 2-(2-Methoxyethoxy)ethyl 2-[[(1R)-1-[6-methyl-4-oxo-2-(1-piperidyl)chromen-8-yl]ethyl]amino]benzoate] yielded an EC50 of over 24 µM.
As for `COC(=O)c1ccccc1N[C@H](C)c1cc(C)cc2c(=O)cc(N3CCCCC3)oc12` [Example 379, Methyl 2-[[(1R)-1-[6-methyl-4-oxo-2-(1-piperidyl)chromen-8-yl]ethyl]amino]benzoate], the EC50 is over 24 µM.
`Cc1cc(C(C)Nc2ccccc2C(=O)O)c2oc(N3CCC4(CCN(C)C4=O)CC3)cc(=O)c2c1` (centres unmarked) [Example 381, 2-[1-[6-Methyl-2-(2-methyl-1-oxo-2,8-diazaspiro[4.5]decan-8-yl)-4-oxo-chromen-8-yl]ethylamino]benzoic acid] gave an EC50 of over 24 µM.
For the compound `Cc1cc([C@@H](C)Nc2ccccc2C(=O)O)c2oc(N3CCC(Cl)CC3)cc(=O)c2c1` [Example 383, 2-[[(1R)-1-[2-(4-Chloro-1-piperidyl)-6-methyl-4-oxo-chromen-8-yl]ethyl]amino]benzoic acid], the EC50 is 1 to 5 µM.
